Experimental data: patent US7671054B1, “Reverse-turn mimetics and method relating thereto” (Choongwae Pharma Corporation, priority 2001, dated 2010)
Converted amounts (≈) assume the structure as drawn. “Also recorded” adds a separate entry of the source.

Tests used:
Type in all cases: cell-based
HCC2998 = assay: Sulforhodamine B (SRB) assay; conditions: Homo sapiens, HCC 2998; HCC2998, Colon; 48 hours; read-out: GI50 (SRB in vitro cytotoxicity)
Description: (§1) Growth inhibitory effect of Compound A on the cells listed below was measured by the sulforhodamine B assay. SW480 cells in 100 μl media were plated in each well of 96-well plate and allowed to attach for 24 hours. Compound A was added to the wells to produce the desired final concentrations, and the plates were incubated at 37° C. for 48 hours. The cells were then fixed by gentle addition of 100 μl of cold (4° C.) 10% trichloroacetic acid to each well, followed by incubation at 4° C. for 1 hour. Plates were washed with deionized water five times and allowed to air dry. The cells were then stained by addition of 100 μl SRB solution (0.4% SRB(w/v) in 1% acetic acid (v/v)) to wells for 15 min. After staining, the plates were quickly washed five times with 1% acetic acid to remove any unbound dye, and allowed to air dry. Bound dye was solubilized with 10 mmol/L Tris base (pH 10.5) prior to reading the plates. The optical density (OD) was read on a plate reader at a wavelength of 515 nm with Molecular Device. Inhibition of growth was expressed as relative viability (% of control) and GI50 was calculated from concentration-response curves after log/probit transformation.

A253 = assay: Sulforhodamine B (SRB) assay; conditions: Homo sapiens; A253, Melanoma; 48 hours; read-out: GI50 (SRB in vitro cytotoxicity)
Description: as §1

LOX-IMVI = assay: Sulforhodamine B (SRB) assay; conditions: Homo sapiens, Melanoma, 48 hours, read-out: GI50 (SRB in vitro cytotoxicity)
Description: as §1

SK-MEL-28 = assay: Sulforhodamine B (SRB) assay; conditions: Homo sapiens; SK-MEL-28, Melanoma; 48 hours; read-out: GI50 (SRB in vitro cytotoxicity)
Description: as §1

K562 = assay: Sulforhodamine B (SRB) assay; conditions: Homo sapiens; K562, Leukemia; 48 hours; read-out: GI50 (SRB in vitro cytotoxicity)
Description: as §1

HCT116 = assay: Sulforhodamine B (SRB) assay; conditions: Homo sapiens, HCT-116; HCT116, Colon; 48 hours; read-out: GI50 (SRB in vitro cytotoxicity)
Description: as §1

[1] = Sulforhodamine B (SRB) assay; conditions: human, 293 cells (renal), 293, Renal, read-out: GI50 (SRB in vitro cytotoxicity)
Description: as §1

CRL1579 = assay: Sulforhodamine B (SRB) assay; conditions: CRL1579, Melanoma; 48 hours; read-out: GI50 (SRB in vitro cytotoxicity)
Description: as §1

HT29 = assay: Sulforhodamine B (SRB) assay; conditions: Homo sapiens, HT-29; HT29, Colon; 48 hours; read-out: GI50 (SRB in vitro cytotoxicity)
Description: as §1

G361 = assay: Sulforhodamine B (SRB) assay; conditions: Homo sapiens, G-361; G361, Melanoma; 48 hours; read-out: GI50 (SRB in vitro cytotoxicity)
Description: as §1

UACC62 = assay: Sulforhodamine B (SRB) assay; conditions: Homo sapiens, UACC-62; UACC62, Melanoma; 48 hours; read-out: GI50 (SRB in vitro cytotoxicity)
Description: as §1

RPMI8226 = assay: Sulforhodamine B (SRB) assay; conditions: Homo sapiens, RPMI-8226; RPMI8226, Leukemia; 48 hours; read-out: GI50 (SRB in vitro cytotoxicity)
Description: as §1

A431 = assay: Sulforhodamine B (SRB) assay; conditions: Homo sapiens, A-431; A431, Melanoma; 48 hours; read-out: GI50 (SRB in vitro cytotoxicity)
Description: as §1

CACO-2 = assay: Sulforhodamine B (SRB) assay; conditions: Homo sapiens; CACO-2, Colon; 48 hours; read-out: GI50 (SRB in vitro cytotoxicity)
Description: as §1

K562/ADR = assay: Sulforhodamine B (SRB) assay; conditions: Homo sapiens, Leukemia, 48 hours, read-out: GI50 (SRB in vitro cytotoxicity)
Description: as §1

HT1080 = assay: Sulforhodamine B (SRB) assay; conditions: Homo sapiens, HT-1080; HT1080, listed under Prostate; 48 hours; read-out: GI50 (SRB in vitro cytotoxicity)
Description: as §1

KM12 = assay: Sulforhodamine B (SRB) assay; conditions: Homo sapiens; KM12, Colon; 48 hours; read-out: GI50 (SRB in vitro cytotoxicity)
Description: as §1

PC3 = assay: Sulforhodamine B (SRB) assay; conditions: Homo sapiens, PC-3; PC3, Prostate; 48 hours; read-out: GI50 (SRB in vitro cytotoxicity)
Description: as §1

RPM17951 = assay: Sulforhodamine B (SRB) assay; conditions: RPM17951, Melanoma; 48 hours; read-out: GI50 (SRB in vitro cytotoxicity)
Description: as §1

CAKI-1 = assay: Sulforhodamine B (SRB) assay; conditions: Homo sapiens; CAKI-1, Renal; 48 hours; read-out: GI50 (SRB in vitro cytotoxicity)
Description: as §1

T84 = assay: Sulforhodamine B (SRB) assay; conditions: Homo sapiens; T84, Colon; 48 hours; read-out: GI50 (SRB in vitro cytotoxicity)
Description: as §1

SW480-CWP = assay: Sulforhodamine B (SRB) assay; conditions: Colon, 48 hours, read-out: GI50 (SRB in vitro cytotoxicity)
Description: as §1

A549 = assay: Sulforhodamine B (SRB) assay; conditions: Homo sapiens; A549, Lung; 48 hours; read-out: GI50 (SRB in vitro cytotoxicity)
Description: as §1

M14 = assay: Sulforhodamine B (SRB) assay; conditions: Homo sapiens; M14, Melanoma; 48 hours; read-out: GI50 (SRB in vitro cytotoxicity)
Description: as §1

SW620 = assay: Sulforhodamine B (SRB) assay; conditions: Homo sapiens, SW-620; SW620, Colon; 48 hours; read-out: GI50 (SRB in vitro cytotoxicity)
Description: as §1

[2] = test system: survivin promoter in SW480 cells; assay: Survivin luciferase reporter in SW480 cells; conditions: SW480 cells; various concentrations

Structure (SMILES): O=c1[nH]cc(F)c(=O)[nH]1 [Compound 5-FU, 5-fluorouracil]
- GI50 (HCC2998): 5.49 µg/mL (≈ 42.2 µM)
- GI50 (A253): 2.93 µg/mL (≈ 22.5 µM)
- GI50 (LOX-IMVI): > 10 µg/mL
- GI50 (SK-MEL-28): > 10 µg/mL
- GI50 (K562): 6.13 µg/mL (≈ 47.1 µM)
- GI50 (HCT116): 1.04 µg/mL (≈ 7.99 µM)
- GI50 at 48 h [1]: 2.02 µg/mL (≈ 15.5 µM)
- GI50 (CRL1579): > 10 µg/mL
- GI50 (HT29): 5.33 µg/mL (≈ 41 µM)
- GI50 (G361): 1.54 µg/mL (≈ 11.8 µM)
- GI50 (UACC62): 1.09 µg/mL (≈ 8.4 µM)
- GI50 (RPMI8226): > 10 µg/mL
- GI50 (A431): 0.404 µg/mL (≈ 3.11 µM)
- GI50 (CACO-2): 0.451 µg/mL (≈ 3.47 µM)
- GI50 (K562/ADR): > 10 µg/mL
- GI50 (HT1080): 0.798 µg/mL (≈ 6.13 µM)
- GI50 (KM12): 2.73 µg/mL (≈ 21 µM)
- GI50 (PC3): > 10 µg/mL
- GI50 (RPM17951): 0.92 µg/mL (≈ 7.07 µM)
- GI50 (CAKI-1): 0.925 µg/mL (≈ 7.11 µM)
- GI50 (T84): 1.82 µg/mL (≈ 14 µM)
- GI50 (SW480-CWP): > 10 µg/mL
- GI50 (A549): 1.01 µg/mL (≈ 7.74 µM)
- GI50 (M14): 1.23 µg/mL (≈ 9.42 µM)
- GI50 (SW620): 5.57 µg/mL (≈ 42.8 µM)

Structure (SMILES): O=C1[C@H](Cc2ccc(O)cc2)N2C(=O)CCN(C(=O)NCc3ccccc3)[C@H]2CN1Cc1cccc2ccccc12 [Compound D]
- survivin luciferase reporter activity [2]: inhibit expression of survivin; also recorded: inhibit the activity of a survivin luciferase reporter
